Measurements from article PMC11472058, “Trinucleotide cap analogs with triphosphate chain modifications: synthesis, properties, and evaluation as mRNA capping reagents” (Nucleic Acids Research, 2024).

Legend:
Human Dcp2 = target: T1, Human Dcp2 (Homo sapiens, UniProt Q8IU60); assay: RNA decapping assay with recombinant hDcp2; assay type: biochemical; details: for Susceptibility to hDcp2 (@30 min): fraction of decapped RNA after 30 min of incubation with hDcp2, 27-nt RNA capped with the analog, 37 °C, triplicates ± SD
T1 construct: made in house; host or cells: E. coli
Procedure: Human Dcp2 was expressed in E. coli and purified as described previously ([52]). Short 27 nt-capped RNAs (24.2 ng) were diluted with decapping buffer (50 mM Tris–HCl pH 8.0, 50 mM NH4Cl, 0.01% NP-40, 1 mM DTT, 5 mM MgCl2 and 2 mM MnCl2; 2.9 μl of freshly prepared 10 × Buffer) and the final volume was adjusted to 29 μl with ultrapure RNase free water. 4.2 ng (5 μl) of the solution was taken out as time zero reference and diluted with 5 μl loading dye (5 M urea, 44% formamide, 20 mM EDTA, 0.03% bromophenol blue, 0.03% xylene cyanol). The remaining RNAs (20 ng/24 μl) were subjected to 10 nM hDcp2 (250 nM, 1 μl) and the mixtures were incubated at 37°C for 1 h. At defined time points (5, 15, 30 and 60 min), 4 ng of RNA (5 μl) were taken out and the reactions were quenched by adding an equal volume of loading dye. RNAs were resolved electrophoretically on denaturing 15% acrylamide:bisacrylamide 19:1/7 M urea/1 × TBE gel, stained with SYBR Gold (Invitrogen) and visualized using a Typhoon FLA 9500 (GE Healthcare). The decapping progress was determined for each time point by densitometry analysis of the gels, as a ratio between the intensity of the band corresponding to capped RNA and the sum of the intensity of bands from capped and uncapped RNAs. The percentages of remaining capped RNA were then plotted as a function of time.
The RNAs used to determine the capping efficiencies were also useful to study the susceptibility of capped RNA to decapping by hDcp2, the catalytic subunit of the major human mRNA decapping complex Dcp1/Dcp2, which releases m^7GDP and 5′-monophosphorylated RNA (in this case the 26-nt pApG-RNA24; Figure 4C). The progress of decapping at different time points (5, 15, 30 and 60 min) was monitored by HR-PAGE followed by densitometric analysis of the gels (Figure 4C, triplicates of gels are shown in Supplementary Figure S2), and the fraction of remaining capped RNA (27-nt) was plotted as a function of time (Figure 4D-G). […] For better visualization, the data of modified capped RNAs were grouped according to the type of modification present at the 5′ end and presented in separate graphs (Figure 4E–G). To quantify the relative susceptibility to hDcp2, we compared the decapping levels at the 30 min time point (Table 1). For RNAs capped with β-S-triphosphate analogs (1–6, Figure 4E, Table 1), we observed a significant difference in susceptibility to hDcp2 between RP and SP isomers, independent of the methylation pattern.

human eIF4E1a = target: T2, human eIF4E1a (Homo sapiens, UniProt P06730); assay: Fluorescence quenching titration (FQT) binding assay with eIF4E; details: for Kd: fluorescence quenching titration, 20 °C, pH 7.2, average of triplicates ± SD, read-out: heIF4E1a KD
T2 construct: made in house; host or cells: E. coli Rosetta 2 (DE3)pLysS
Procedure: The human eIF4E1a protein was expressed without affinity tag in E. coli Rosseta 2 (DE3)pLysS strain (Novagen) under conditions leading to accumulation of the produced protein in inclusion bodies ([48]). The protein was extracted from inclusion bodies with buffer containing 6 M guanidine hydrochloride, refolded by one-step dialysis against 50 mM HEPES/KOH (pH 7.2), 100 mM KCl, 0.5 mM EDTA, 2 mM DTT, and purified by ion exchange chromatography on HiTrap SP HP 5 ml column (GE Healthcare) using salts gradient. Finally, protein was filtered using Ultrafree MC-HV Centrifugal PVDF filters with 0.45 μm membrane pore (Millipore) to remove protein aggregates and its concentration was determined spectrophotometrically assuming the theoretical extinction coefficient ϵ280nm = 52 940 L mol^−1cm^−1—calculated from amino acid composition using algorithm on ExPASy Server.
Fluorescence titration measurements were carried out on a LS-55 spectrofluorometer (Perkin Elmer Co., Norwalk, CT, USA) in a quartz semi-micro cuvette (Hellma, Germany) with optical lengths 4 mm and 10 mm for absorption and emission, respectively, which was thermostated at 20.0 ± 0.2 °C. The titrations were performed in 50 mM Hepes/KOH pH 7.2, 100 mM KCl, 0.5 mM EDTA and 1 mM DTT by adding 1 μl aliquots of increasing concentrations of the cap solutions to 1.4 ml of 0.1 μM eIF4E1a solution. The eIF4E1a fluorescence was excited at 280 nm and the fluorescence intensity was monitored at a single wavelength 340 nm. The measured fluorescence intensities were corrected for dilution (<4%) and for the inner filter effect. Association equilibrium constants (Kas) were obtained by fitting the theoretical curve for fluorescence intensity (F) upon total concentration of cap analogs ([L]) to the titration data according to the equation: […]
with the concentration of the cap analogs–eIF4E1a complex [cx] given by:
where Δϕ stands for the difference between the fluorescence efficiencies of the apo- and cap analog bound proteins; ϕlig-free is the fluorescence efficiency of the free cap analog; F(0) is the initial fluorescence, and Pact is the total concentration of the active protein ([49]). The final KAS values were calculated as a weighted average from three independent titrations and represented as the KD values. Numerical least-squares nonlinear regression analysis was performed using ORIGIN 2021 from Microcal Software Inc., USA.
Recognition of the mRNA 5′ cap by translation initiation factor 4E (eIF4E) is considered to be the rate-limiting step for the entire translation process ([63],[64]), therefore we investigated the affinity of novel trinucleotide cap analogs to the canonical human eIF4E1a protein by fluorescence quenching titration (FQT; Table 1 column 1, Figure 3) ([65]). As a reference, we determined the dissociation constant between heIF4E1a and the trinucleotide cap-1 structure m^7GpppAmpG, which was equal to 42 nM and very close to the analogous value previously determined for mouse Δ27NeIF4E (46 nM) ([12]). In the case of all modifications tested, the KD values for cap-heIF4E1a complexes are consistent with the results previously obtained for dinucleotide counterparts and murine eIF4E protein, although the magnitude of the modification effect is generally lower. The most tightly bound tetraphosphate analogs (compounds 10–12) show KD values of 6–7 nM, which means that their affinity is about 6-fold higher compared to the triphosphate counterparts. The affinities decrease upon CH2 or CCl2 modification of the tetraphosphate bridge (compounds 13–16), but they are still 4–5 times higher than for the triphosphate analogs with the same adenosine methylation pattern.

T2 sequence (P06730 whole entry): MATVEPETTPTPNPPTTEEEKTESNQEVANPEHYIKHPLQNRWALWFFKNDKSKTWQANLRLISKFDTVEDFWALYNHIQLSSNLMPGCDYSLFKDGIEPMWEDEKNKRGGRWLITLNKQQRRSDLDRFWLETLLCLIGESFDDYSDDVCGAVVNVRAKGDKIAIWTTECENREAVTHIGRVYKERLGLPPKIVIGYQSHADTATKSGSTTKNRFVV

| SMILES | Susceptibility to hDcp2 (@30 min) (Human Dcp2) | Kd (human eIF4E1a) | effect of modification on binding affinity for heIF4E1a (in words) (human eIF4E1a; compared to corresponding triphosphates) | susceptibility of capped RNA to decapping by hDcp2 (in words) (Human Dcp2; 27-nt capped RNA, up to 60 min) |
| --- | --- | --- | --- | --- |
| C[n+]1cn([C@@H]2O[C@H](COP(=O)(O)O[P@@](=O)([S-])OP(=O)(O)OC[C@H]3O[C@@H](n4cnc5c(N)ncnc54)[C@H](O)[C@@H]3OP(=O)(O)OC[C@H]3O[C@@H](n4cnc5c(=O)[nH]c(N)nc54)[C@H](O)[C@@H]3O)[C@@H](O)[C@H]2O)c2nc(N)nc(O)c21 [Compound 1, m^7GppSpApG] | 0.81 ± 0.16 | 12.6 ± 0.8 nM | – | – |
| C[n+]1cn([C@@H]2O[C@H](COP(=O)(O)O[P@](=O)([S-])OP(=O)(O)OC[C@H]3O[C@@H](n4cnc5c(N)ncnc54)[C@H](O)[C@@H]3OP(=O)(O)OC[C@H]3O[C@@H](n4cnc5c(=O)[nH]c(N)nc54)[C@H](O)[C@@H]3O)[C@@H](O)[C@H]2O)c2nc(N)nc(O)c21 [Compound 2, m^7GppSpApG] | 0.31 ± 0.09 | 15.9 ± 0.9 nM | – | – |
| COC1C(OP(=O)(O)OCC2OC(n3cnc4c(=O)[nH]c(N)nc43)C(O)C2O)C(COP(=O)(O)OP(=O)([S-])OP(=O)(O)OCC2OC(n3c[n+](C)c4c(O)nc(N)nc43)C(O)C2O)OC1n1cnc2c(N)ncnc21 (stereo not shown) [Compound 3, m^7GppSpAmpG] | 0.82 ± 0.09 | 14 ± 0.8 nM | – | – |
| COC1C(OP(=O)(O)OCC2OC(n3cnc4c(=O)[nH]c(N)nc43)C(O)C2O)C(COP(=O)(O)OP(=O)([S-])OP(=O)(O)OCC2OC(n3c[n+](C)c4c(O)nc(N)nc43)C(O)C2O)OC1n1cnc2c(N)ncnc21 (stereo not shown) [Compound 4, m^7GppSpAmpG] | 0.32 ± 0.10 | 16.6 ± 1.1 nM | – | – |
| CNc1ncnc2c1ncn2[C@@H]1O[C@H](COP(=O)(O)O[P@@](=O)([S-])OP(=O)(O)OC[C@H]2O[C@@H](n3c[n+](C)c4c(O)nc(N)nc43)[C@H](O)[C@@H]2O)[C@@H](OP(=O)(O)OC[C@H]2O[C@@H](n3cnc4c(=O)[nH]c(N)nc43)[C@H](O)[C@@H]2O)[C@H]1OC [Compound 6, m^7GppSp^m6AmpG] | 0.15 ± 0.10 | 21.7 ± 0.6 nM | – | – |
| C[n+]1cn([C@@H]2O[C@H](COP(=O)(O)OP(=O)(O)OP(=O)([O-])SC[C@H]3O[C@@H](n4cnc5c(N)ncnc54)[C@H](O)[C@@H]3OP(=O)(O)OC[C@H]3O[C@@H](n4cnc5c(=O)[nH]c(N)nc54)[C@H](O)[C@@H]3O)[C@@H](O)[C@H]2O)c2nc(N)nc(O)c21 [Compound 7, m^7Gppp^5’SApG] | 0.60 ± 0.15 | 31.4 ± 1.9 nM | virtually no effect on binding affinity | – |
| CO[C@@H]1[C@H](OP(=O)(O)OC[C@H]2O[C@@H](n3cnc4c(=O)[nH]c(N)nc43)[C@H](O)[C@@H]2O)[C@@H](COP(=O)([O-])OP(=O)(O)CP(=O)(O)OP(=O)(O)OC[C@H]2O[C@@H](n3c[n+](C)c4c(O)nc(N)nc43)[C@H](O)[C@@H]2O)O[C@H]1n1cnc2c(N)ncnc21 [Compound 16, m^7GppCH2ppAmpG] | 0.27 ± 0.07 | 12.1 ± 0.5 nM | – | significantly reduced the susceptibility to decapping |
